pIC50: −log10 of the molar value. Where two headings read alike, the source gives them in different places.
Test system: amyloid β production in transfected H4 (human neuroglioma) cells stably expressing APP constructs
Experiment: In vitro cell-based assay of inhibitors of amyloid β production (ELISA)
Conditions: amyloid β in medium by ELISA
Experimental: In Vitro Cell-Based Assay of Inhibitors of Amyloid β Production
Transfected H4 (human neuroglioma) cells stably expressing APP constructs are used to identify and assess inhibitors of Aβ production. In brief, cells lines are exposed to compounds, and the effect of each compound on amyloid β production is determined by measuring the amount of amyloid β produced using an enzyme linked immunosorbent assay (ELISA) that detects amyloid β (see, for example, Seubert et al., (1992) Nature, 359:325-327).
Transfected cells that stably express wild-type and variant forms of APP are plated in 96-well format plates at a density sufficient for the rapid detection of the secreted amyloid β (experimentally predetermined for a particular stable cell population). Cells are plated at least six hours prior to the introduction of the test compound at which time the growth medium is replaced by fresh medium containing the compound to be tested. All synthetic agents are initially screened at doses ranging from 10-100 μM. Higher dilutions of agents can be used to minimize cytotoxicity. Incubation of cells with a test compound continues for approximately 16 hours at which time aliquots of medium from each well are removed and assayed for amyloid β.
ELISA is carried out by methods known in the art (see, e.g., Haass et al., Antibodies: A Laboratory Manual, Harlow and lane, Editors, Cold Spring Harbor Press, 1988) The capture antibody is typically a mouse monoclonal (IgG1/kβ-APPa) which recognizes the carboxyl terminal epitope of amyloid β. The specificity of the capture antibody insures measurement of amyloid β without interference from other secreted APP fragments that share amino acid sequence (amyloid β 1-16) homology with amyloid β but lack the carboxy-terminal region. The detecting antibody is typically an affinity-purified rabbit polyclonal antibody that is specific for the amino terminus of amyloid β.
Results from test compounds are compared to results obtained when cells are treated with control agents. Amyloid β levels are determined by comparison to a standard curve obtained by subjecting a range of known amounts of amyloid β to the ELISA.
A compound is identified as “active” when it inhibits cellular production of amyloid β relative to levels in control samples by at least 50% at the initial tested concentration without significant cytotoxicity. Active compounds are then assayed in dose-response experiments to determine the lowest dose of compound necessary for inhibition of amyloid β production.

[1] = transfected H4 cells stably expressing APP constructs, approximately 16 hours incubation, read-out: ACTIVITY (IC50, inhibition of amyloid β production)
[2] = transfected H4 cells stably expressing APP, approximately 16 hours incubation, read-out: ACTIVITY (IC50, inhibition of amyloid β production)
[3] = transfected H4 cells stably expressing APP, approx. 16 h incubation, read-out: ACTIVITY (IC50, inhibition of amyloid β production)
[4] = Homo sapiens, 16 h, transfected H4 cells stably expressing APP constructs, approximately 16 hours incubation, read-out: ACTIVITY (IC50, inhibition of amyloid β production)
[5] = Table B, transfected H4 cells stably expressing APP, approximately 16 hours incubation, read-out: ACTIVITY (inhibitory concentration IC50, inhibition of amyloid β production)

Row | Compound | pIC50 [5] | further results
1 | 4-chloro-N-(2,5-difluorophenyl)-N-[3-[2-[4-chloro-N-(2,5-difluorophenyl)-N-[(3-amino)-1(R)-methylpropyl]benzenesulfonamide]-3,4-dioxo-1-cyclobutenyl)amine-1(R)- [Example 1139] |  | pIC50 [1]: 6.30 to 7.00
2 | 4-chloro-N-(2,5-difluorophenyl)-N-[(1R)-1-(4-[(ethylsulfonyl)amino]butyl}-4-fluorophenyl)ethyl]benzenesulfonamide [Example 1075] |  | pIC50 [2]: < 6.30
3 | 4-chloro-N-(2,5-difluorophenyl)-N-{2-[3-(1-piperidinyl)propyl]benzyl}-N-phenylbenzenesulfonamide [Example 1044] |  | pIC50 [2]: < 6.30
4 | 4-chloro-N-(5-chloro-2-fluorophenyl)-N-[3-[2-[4-chloro-N-(5-chloro-2-fluorophenyl)-N-[(3-amino)-1(R)-methylpropyl]benzenesulfonamide]-3,4-dioxo-1-cyclobutenyl)amine-1(R)- [Example 1130] |  | pIC50 [1]: 7.00 to 7.30
5 | 4-chloro-N-{3-[2-(1-{[(4-chlorophenyl)sulfonyl]-2,5-difluoroanilino}ethyl)phenoxy]propyl}-2-nitrobenzamide [Example 947] |  | pIC50 [2]: < 6.30
6 | 4-chloro-N-{3-[2-(1-{[(4-chlorophenyl)sulfonyl]-2,5-difluoroanilino}ethyl)phenoxy]propyl}-N-methyl-2-nitrobenzamide [Example 636] |  | pIC50 [3]: 6.30 to 7.00
7 | 4-chloro-N-{3-[2-(1-{[(4-chlorophenyl)sulfonyl]-2,5-difluoroanilino}ethyl)phenoxy]propyl}-N-methyl-3-nitrobenzenesulfonamide [Example 807] |  | pIC50 [2]: 6.30 to 7.00
8 | 4-chloro-N-{3-[2-(1-{[(4-chlorophenyl)sulfonyl]-2,5-difluoroanilino}ethyl)phenoxy]propyl}-N-methylbenzamide [Example 722] |  | pIC50 [3]: 6.30 to 7.00
9 | 4-chloro-N-{3-[2-(1-{[(4-chlorophenyl)sulfonyl]-2,5-difluoroanilino}ethyl)phenoxy]propyl}benzamide [Example 811] |  | pIC50 [2]: 6.30 to 7.00
10 | 4-chloro-N-{3-[2-({[(4-chlorophenyl)sulfonyl]-2,5-difluoroanilino}methyl)phenoxy]propyl}-N-methylbenzamide [Example 970] |  | pIC50 [2]: < 6.30
11 | 4-tert-butyl-N-{3-[2-(1-{[(4-chlorophenyl)sulfonyl]-2,5-difluoroanilino}ethyl)phenoxy]propyl}benzamide [Example 274] |  | pIC50 (transfected H4 cells stably expressing APP, approximately 16 hours incubation, Table B, read-out: ACTIVITY (IC50, inhibition of amyloid β production)): 7.30 to 7.60
12 | 5-[2-((1R)-1-{[(4-chlorophenyl)sulfonyl]-2,5-difluoroanilino}ethyl)-5-fluorophenyl]butanoic acid [Example 1070] |  | pIC50 [2]: < 6.30
13 | C[C@H](CCCNC(=O)C(C)(C)C)N(c1cc(Cl)ccc1Cl)S(=O)(=O)c1ccc(Cl)cc1 (stereo in doubt) [Example 1137, 4-chloro-N-(2,5-dichlorophenyl)-N-[4-[[(1,1-dimethylethyl)carbonyl]amino]-1-methylbutyl]benzenesulfonamide] |  | pIC50 [4]: 6.30 to 7.00
14 | CC([C@@H]1CCCN1C(=O)OC(C)(C)C)N(c1cc(Cl)ccc1Cl)S(=O)(=O)c1ccc(Cl)cc1 (stereo in doubt) [Example 1255, 4-chloro-N-(2,5-dichlorophenyl)-N-[1-(S)-[1-[(1,1-dimethylethoxy)carbonyl]pyrrolidin-2-yl]ethyl]benzenesulfonamide] |  | pIC50 [4]: < 6.30
15 | CC(C)(C)[Si](C)(C)OCCCCCO [Example 1, (S)-5-[[dimethyl(1,1-dimethylethyl)silyl]oxy]-1-pentanol] | ≥ 7.60 | 
16 | O=[N+]([O-])c1cc(Cl)ccc1COC1CCCCO1 (stereo not drawn) [Example 2, 4-Chloro-2-nitro-1-[[(tetrahydro-2H-pyran-2-yl)oxy]methyl]benzene] | ≥ 7.60 | 
17 | Nc1cc(Cl)ccc1COC1CCCCO1 (stereo not drawn) [Example 3, 5-Chloro-2-[[(tetrahydro-2H-pyran-2-yl)oxy]methyl]benzenamine] | ≥ 7.60 | 

Row | Compound | pIC50 [5] | further results
18 | CC(=O)OCc1ccc(Cl)cc1N([C@H](C)CCCS(=O)(=O)O)S(=O)(=O)c1ccc(Cl)cc1 [Example 11] | ≥ 7.60 | 
19 | C[C@H](CCCS(=O)(=O)Cl)N(c1cc(Cl)ccc1CO)S(=O)(=O)c1ccc(Cl)cc1 [Example 12] | ≥ 7.60 | 
20 | C[C@H](CCCS(=O)(=O)Cl)N(c1cc(Cl)ccc1Cl)S(=O)(=O)c1ccc(Cl)cc1 [Example 18] | ≥ 7.60 | 
21 | C[C@H](O)CO[Si](C)(C)C(C)(C)C [Example 21] | ≥ 7.60 | 
22 | C[C@H](O)CCOC(c1ccccc1)(c1ccccc1)c1ccccc1 [Example 25, (S)-4-triphenylmethylyloxy-2-butanol] | ≥ 7.60 | 
23 | C[C@H](CCOC(c1ccccc1)(c1ccccc1)c1ccccc1)N(c1cc(Cl)ccc1Cl)S(=O)(=O)c1ccc(Cl)cc1 [Example 26, 4-Chloro-N-(2,5-dichlorophenyl]-N-[1(R)-methyl-(3-triphenylmethyloxy)-propyl]benezenesulfonamide] | ≥ 7.60 | 
24 | C[C@H](O)CCCC(=O)OC(C)(C)C [Example 34, 1,1-Dimethylethyl (5S)-5-hydroxyhexanoate] | ≥ 7.60 | 
25 | C[C@H](CCCC(=O)OC(C)(C)C)N(c1cc(Cl)ccc1Cl)S(=O)(=O)c1ccc(Cl)cc1 [Example 35, 1,1-dimethylethyl(5R)-5-[(2,5-dichlorophenyl)-[(4-chlorophenyl)sulfonyl]-amino]hexanoate] | ≥ 7.60 | 
26 | C[C@H](CCCC(=O)O)N(c1cc(Cl)ccc1Cl)S(=O)(=O)c1ccc(Cl)cc1 [Example 36, (5R)-5-[(2,5-dichlorophenyl][(4-chlorophenyl)sulfonyl]-amino]hexanoic Acid] | ≥ 7.60 | 
27 | C[C@H](CCCS(=O)(=O)Cl)N(c1cc(Cl)ccc1F)S(=O)(=O)c1ccc(Cl)cc1 [Example 43, (4R)-4-[N-[5-chloro-2-fluorophenyl][(4-chlorophenyl)sulfonyl]amino]pentylsulfonyl Chloride] | ≥ 7.60 | 
28 | c1cn(CCCNCC2CC2)cn1 [Example 58, N-cyclopropylmethyl-3-(1H)-imidazolylpropylamine] | ≥ 7.60 | 
29 | CS(=O)(=O)C[C@H]1CCCN1 [Example 68] | ≥ 7.60 | 
30 | C[C@H](CCNc1c(NCC[C@@H](C)N(c2cc(F)ccc2F)S(=O)(=O)c2ccc(Cl)cc2)c(=O)c1=O)N(c1cc(F)ccc1F)S(=O)(=O)c1ccc(Cl)cc1 [Example 132, 4-Chloro-N-(2,5-difluorophenyl)-N-[3-[2-[4-chloro-N-(2,5-difluorophenyl)-N-[(3-amino)-1(R)-methylpropyl]benzenesulfonamide]-3,4-dioxo-1-cyclobutenyl]amine-1(R)-methylpropyl]benzenesulfonamide] | ≥ 7.60 | 
31 | COC(=O)C[S+]([O-])C[C@@H](C)N(c1cc(Cl)ccc1Cl)S(=O)(=O)c1ccc(Cl)cc1 (stereo partly drawn) [Example 178, Methyl(5R)-5-[(2,5-dichlorophenyl)[(4-chlorophenyl)sulfonyl]amino]-3-thiohexanoate,3 Oxide] | ≥ 7.60 | 
32 | COC(=O)CSCC[C@@H](C)N(c1cc(Cl)ccc1Cl)S(=O)(=O)c1ccc(Cl)cc1 [Example 179, Methyl(6R)-6-[(2,5,dichlorophenyl)[(4-chlorophenyl)sulfonyl]amino]-3-thioheptanoate] | ≥ 7.60 | 
33 | C[C@H](CCSCC(=O)O)N(c1cc(Cl)ccc1Cl)S(=O)(=O)c1ccc(Cl)cc1 [Example 180, (6R)-6-[(2,5-dichlorophenyl)[(4-chlorophenyl)sulfonyl]amino]-3-thioheptanoic Acid] | ≥ 7.60 | 

— US6967196B1, “Sulfonamide compounds and uses thereof” (Bristol-Myers Squibb Company, priority 1999, dated 2005)
